{
  "source": "ChEMBL document CHEMBL5154737",
  "about": "“Semisynthesis and biological evaluation of (+)-sclerotiorin derivatives as antitumor agents for the treatment of hepatocellular carcinoma” (Eur J Med Chem, 2022)",
  "key": {"Bel-7402 [1]": {"system": "Bel-7402", "assay": "Induction of apoptosis in human Bel-7402 cells assessed as early apoptotic cells at 0.625 uM incubated for 24 hrs by Annexin V and dead cell assay kit (reference value: 3.75 %)", "format": "functional"}, "[2]": {"assay": "Drug uptake in tumor of mouse bearing tumor measured after 24 hr by ICG dye based fluorescence imaging", "format": "ADME, tissue-based, Neoplasm", "conditions": "in vivo"}, "[3]": {"assay": "Chronic toxicity in ICR mouse assessed as effect on spleen morphology at 100 mg/kg, ip qd measured after 26 days by H and E staining method", "format": "organism-based", "conditions": "in vivo, 624 h, time 26 day"}, "HeLa": {"system": "HeLa", "assay": "Cytotoxicity against human HeLa cells assessed as reduction in cell viability incubated for 72 hrs by MTT assay", "format": "functional, cell-based"}, "[4]": {"assay": "Toxicity in ICR mouse assessed as change in red blood cell specific volume at 100 mg/kg, ip qd (reference value: 36.1 %)", "format": "organism-based", "conditions": "in vivo"}, "[5]": {"assay": "Cytotoxicity against human HepG2 cells assessed as reduction in cell viability incubated for 72 hrs by MTT assay", "format": "toxicity, cell-based"}, "Bel-7402 [6]": {"system": "Bel-7402", "assay": "Induction of apoptosis in human Bel-7402 cells assessed as viable cells at 2.5 uM incubated for 24 hrs in presence of U0126 by Annexin V and Dead cell kit assay (reference value: 90.82 %)", "format": "functional", "conditions": "read-out: Activity"}, "[7]": {"assay": "MRT (0 to t) in Sprague-Dawley rat at 20 mg/kg, ip measured for 0.03 to 24 hrs by UPLC-MS analysis", "format": "ADME, organism-based", "conditions": "in vivo, time 0.03-24 hrs"}, "ECa-109 cell line": {"system": "ECa-109 cell line", "assay": "Cytotoxicity against human Eca-109 cells assessed as reduction in cell viability incubated for 72 hrs by MTT assay", "format": "functional, cell-based", "conditions": "ECa-109, 72 h"}, "Bel-7402 [8]": {"system": "Bel-7402", "assay": "Cytotoxicity against human Bel-7402 cells assessed as reduction in cell viability incubated for 72 hrs by MTT assay", "format": "functional, cell-based", "conditions": "Bel-7402, 72 h"}, "[9]": {"assay": "AUC (0 to t) in Sprague-Dawley rat at 20 mg/kg, ip measured for 0.03 to 24 hrs by UPLC-MS analysis", "format": "ADME, organism-based", "parameters": "time lower 0.03 hrs, dose 20 mg/kg, time upper 24 hrs, route ip", "conditions": "in vivo"}, "Bel-7402 [10]": {"system": "Bel-7402", "assay": "Upregulation of total protein ubiquitination level in human Bel-7402 cells at 2.5 uM by Western blot analysis", "format": "functional, cell-based", "conditions": "time <= 12.0 hrs, TDE = time-dependent effect"}, "Bel-7402 [11]": {"system": "Bel-7402", "assay": "Induction of AKT degradation in human Bel-7402 cells at 2.5 uM incubated for 24 hrs in presence of chloroquine by Western blot analysis", "format": "cell-based"}, "[12]": {"assay": "Half life in Sprague-Dawley rat at 20 mg/kg, ip measured for 0.03 to 24 hrs by UPLC-MS analysis", "format": "ADME, organism-based", "conditions": "in vivo, time 0.03-24 hrs"}, "[13]": {"assay": "Chronic toxicity in ICR mouse assessed as effect on lung morphology at 100 mg/kg, ip qd measured after 26 days by H and E staining method", "format": "organism-based", "conditions": "in vivo, 624 h, time 26 day"}, "Bel-7402 [14]": {"system": "Bel-7402", "assay": "Induction of apoptosis in human Bel-7402 cells assessed as viable cells at 1.25 uM incubated for 24 hrs by Annexin V and dead cell assay kit (reference value: 91.00%)", "format": "functional", "conditions": "read-out: Activity"}, "Bel-7402 [15]": {"system": "Bel-7402", "assay": "Induction of apoptosis in human Bel-7402 cells assessed as necrotic cells at 2.5 uM incubated for 24 hrs in presence of U0126 by Annexin V and Dead cell kit assay (reference value: 1.6 %)", "format": "functional"}, "Bel-7402 [16]": {"system": "Bel-7402", "assay": "Induction of apoptosis in human Bel-7402 cells assessed as viable cells at 0.625 uM incubated for 24 hrs by Annexin V and dead cell assay kit (reference value: 91.00%)", "format": "functional", "conditions": "read-out: Activity"}, "[17]": {"assay": "Acute toxicity in ICR mouse assessed as behavioural change at 100 to 500 mg/kg, ip", "format": "organism-based", "conditions": "in vivo, dose 100-500 mg/kg"}, "Bel-7402 [18]": {"system": "Bel-7402", "assay": "Induction of ERK degradation in human Bel-7402 cells at 2.5 uM incubated for 24 hrs in presence of Z-vad-fmk by Western blot analysis", "format": "cell-based"}, "Bel-7402 [19]": {"system": "Bel-7402", "assay": "Induction of apoptosis in human Bel-7402 cells assessed as early apoptotic cells at 1.25 uM incubated for 24 hrs by Annexin V and dead cell assay kit (reference value: 3.75 %)", "format": "functional"}, "Bel-7402 [20]": {"system": "Bel-7402", "assay": "Induction of apoptosis in human Bel-7402 cells assessed as viable cells at 5 uM incubated for 24 hrs by Annexin V and dead cell assay kit (reference value: 91.00%)", "format": "functional", "conditions": "read-out: Activity"}, "[21]": {"assay": "Cytotoxicity against human Biu-87 cells assessed as reduction in cell viability incubated for 72 hrs by MTT assay", "format": "functional, cell-based", "conditions": "BIU87, 72 h"}, "[22]": {"assay": "Toxicity in ICR mouse assessed as change in red blood cell volume distribution width at 100 mg/kg, ip qd (reference value: 16.6 %)", "format": "organism-based", "conditions": "in vivo"}, "[23]": {"assay": "Toxicity in BALB/c nude mouse xenografted with human Bel-7402 cells assessed as behavioural change at 10 to 20 mg/kg, ip bid", "format": "organism-based", "conditions": "in vivo, dose 10-20 mg/kg"}, "[24]": {"assay": "Toxicity in BALB/c nude mouse xenografted with human Bel-7402 cells assessed as change in body weight at 10 to 20 mg/kg, ip bid measured every 2 days for 14 days", "format": "organism-based", "conditions": "in vivo, 336 h, dose 10-20 mg/kg, time 14 day"}, "[25]": {"assay": "Chronic toxicity in ICR mouse assessed as effect on liver morphology at 100 mg/kg, ip qd measured after 26 days by H and E staining method", "format": "organism-based", "conditions": "in vivo, 624 h, time 26 day"}, "[26]": {"assay": "Acute toxicity in ICR mouse assessed as body weight change at 100 to 500 mg/kg, ip", "format": "organism-based", "conditions": "in vivo, dose 100-500 mg/kg"}, "Bel-7402 [27]": {"system": "Bel-7402", "assay": "Induction of apoptosis in human Bel-7402 cells assessed as increase in cleaved caspase-3 upto 2.5 uM incubated for 24 hrs by Western blot analysis", "format": "functional, cell-based"}, "Bel-7402 [28]": {"system": "Bel-7402", "assay": "Inhibition of cell proliferation in human Bel-7402 cells assessed as inhibition of colony formation incubated for 10 days by crystal violet based plate clone formation assay", "format": "functional", "conditions": "dose <= 2.0 µM, time 10.0 day, DDE = dose-dependent effect"}, "[29]": {"assay": "Biodistribution in lung of mouse bearing tumor measured after 24 hr by ICG dye based fluorescence imaging", "format": "ADME, organism-based", "conditions": "in vivo"}, "[30]": {"assay": "Biodistribution in liver of mouse bearing tumor measured after 24 hr by ICG dye based fluorescence imaging", "format": "ADME, organism-based", "conditions": "in vivo"}, "Bel-7402 [31]": {"system": "Bel-7402", "assay": "Induction of apoptosis in human Bel-7402 cells assessed as late apoptotic cells at 0.625 uM incubated for 24 hrs by Annexin V and dead cell assay kit (reference value: 4.45 %)", "format": "functional"}, "[32]": {"assay": "Toxicity in ICR mouse assessed as change in mean corpuscular hemoglobin concentration at 100 mg/kg, ip qd (reference value: 343 g/L)", "format": "organism-based", "conditions": "in vivo"}, "Bel-7402 [33]": {"system": "Bel-7402", "assay": "Induction of apoptosis in human Bel-7402 cells assessed as dead cells at 1.25 uM incubated for 24 hrs by Annexin V and dead cell assay kit (reference value: 0.80 %)", "format": "functional"}, "[34]": {"assay": "Biodistribution in kidney of mouse bearing tumor measured after 24 hr by ICG dye based fluorescence imaging", "format": "ADME, organism-based", "conditions": "in vivo"}, "Bel-7402 [35]": {"system": "Bel-7402", "assay": "Induction of caspase dependent apoptosis in human Bel-7402 cells assessed as reduction in cell proliferation inhibition upto 10 uM incubated for 24 hrs in presence of Z-vad-fmk by MTT assay", "format": "functional, cell-based"}, "[36]": {"assay": "Toxicity in ICR mouse assessed as change in hemoglobin level at 100 mg/kg, ip qd (reference value: 124 g/L)", "format": "organism-based", "conditions": "in vivo"}, "Bel-7402 [37]": {"system": "Bel-7402", "assay": "Induction of apoptosis in human Bel-7402 cells assessed as dead cells at 0.625 uM incubated for 24 hrs by Annexin V and dead cell assay kit (reference value: 0.80 %)", "format": "functional"}},
  "note": "The source made the active and inactive calls. The calls are words filed in the database; no cut-off is given here.",
  "data": [
    {"smiles": "CC[C@H](C)/C=C(C)/C=C/C1=CC2=C(Cl)C(=O)[C@](C)(O)C(=O)C2=CN1Cc1ccc(OC(F)(F)F)cc1", "values": [
      {"measurement": "Activity", "setting": "Bel-7402 [1]", "value": 4.7, "unit": "%"},
      {"measurement": "Drug uptake", "setting": "[2]", "value": "Active"},
      {"measurement": "Activity", "setting": "[3]", "value": "Non-Toxic"},
      {"measurement": "IC50", "setting": "HeLa", "value": 2780, "unit": "nM"},
      {"measurement": "Activity", "setting": "[4]", "value": 46, "unit": "%"},
      {"measurement": "IC50 at 72 h", "setting": "[5]", "value": 2820, "unit": "nM"},
      {"measurement": "viability at 2.5 µM", "setting": "Bel-7402 [6]", "value": 29.2, "unit": "%"},
      {"measurement": "MRT last", "setting": "[7]", "value": 4.46, "unit": "h"},
      {"measurement": "IC50", "setting": "ECa-109 cell line", "value": 1160, "unit": "nM"},
      {"measurement": "IC50", "setting": "Bel-7402 [8]", "value": 1150, "unit": "nM"},
      {"measurement": "AUC(0-t)", "setting": "[9]", "value": 29700, "unit": "ng·h/mL"},
      {"measurement": "Activity", "setting": "Bel-7402 [10]", "value": "Tde"},
      {"measurement": "Activity", "setting": "Bel-7402 [11]", "value": "Active"},
      {"measurement": "half-life", "setting": "[12]", "value": 2.5, "unit": "h"},
      {"measurement": "Activity", "setting": "[13]", "value": "Non-Toxic"},
      {"measurement": "viability at 1.25 µM", "setting": "Bel-7402 [14]", "value": 88.4, "unit": "%"},
      {"measurement": "Activity", "setting": "Bel-7402 [15]", "value": 7.75, "unit": "%"},
      {"measurement": "viability at 0.625 µM", "setting": "Bel-7402 [16]", "value": 91.6, "unit": "%"},
      {"measurement": "Activity", "setting": "[17]", "value": "Non-Toxic"},
      {"measurement": "Activity", "setting": "Bel-7402 [18]", "value": "Active"},
      {"measurement": "Activity", "setting": "Bel-7402 [19]", "value": 5.1, "unit": "%"},
      {"measurement": "viability at 5 µM", "setting": "Bel-7402 [20]", "value": 8.2, "unit": "%"},
      {"measurement": "IC50", "setting": "[21]", "value": 2760, "unit": "nM"},
      {"measurement": "Activity", "setting": "[22]", "value": 13.5, "unit": "%"},
      {"measurement": "Activity", "setting": "[23]", "value": "Non-Toxic"},
      {"measurement": "Activity", "setting": "[24]", "value": "Non-Toxic"},
      {"measurement": "Activity", "setting": "[25]", "value": "Non-Toxic"},
      {"measurement": "Activity", "setting": "[26]", "value": "Non-Toxic"},
      {"measurement": "Activity", "setting": "Bel-7402 [27]", "value": "Active"},
      {"measurement": "Activity", "setting": "Bel-7402 [28]", "value": "Dde"},
      {"measurement": "Activity", "setting": "[29]", "value": "Active"},
      {"measurement": "Activity", "setting": "[30]", "value": "Active"},
      {"measurement": "Activity", "setting": "Bel-7402 [31]", "value": 3.1, "unit": "%"},
      {"measurement": "Activity", "setting": "[32]", "value": 306, "unit": "g/L"},
      {"measurement": "Activity", "setting": "Bel-7402 [33]", "value": 0.75, "unit": "%"},
      {"measurement": "Activity", "setting": "[34]", "value": "Active"},
      {"measurement": "Activity", "setting": "Bel-7402 [35]", "value": "Active"},
      {"measurement": "Activity", "setting": "[36]", "value": 141, "unit": "g/L"},
      {"measurement": "Activity", "setting": "Bel-7402 [37]", "value": 0.6, "unit": "%"}
    ]}
  ]
}
